The numbers were not newly measured in patent US20220218792A1, “COMPOSITIONS TO PROMOTE THE HEALING OF SKIN ULCERS AND WOUNDS” (priority 2014, published 2022), which cites them from elsewhere.

The conditions of series [1]: for gastric tolerability: oral.
Experiment in series [2]: not given
The source holds these as a separate data set.

The conditions of series [3]: aqueous media at physiological pH.
Series [4] has as its system strains of organisms from the susceptible genera.
In series [5] the test system is polymorphonuclear leukocytes.
Series [6] has as its system Peptostreptococcus (including Peptoniphilus, Finegoldia and Anaerococcus) and Fusobacterium. The note with it: anaerobic genera.
The test system of series [7] is Staphylococcus, Streptococcus, Neisseria, Escherichia, Proteus (indole-negative), Serratia, Salmonella, Shigella, Pseudomonas, Haemophilus, Vibrio. To be noted: aerobic genera.
Series [8] relates to indole-positive Proteus spp., Klebsiella and Enterobacter spp.
Series [9] has as its system chronic wounds and ulcers. To be noted: topically applied; deep partial-thickness burns, chronic leg ulcers and leprosy ulcers.
The subject of series [10] is wounds infected with Escherichia coli. The note with it: topically applied, rats.

For `C[C@@H]1O[C@@H]1P(=O)(O)O` [Fosfomycin disodium], the “pH of 5% solution” value is 9.0-10.5. Further, the gastric tolerability entry in series [1] is “irritant to the stomach”. Moreover, the solubility in water entry in series [2] is on record as “highly soluble”.
On to `C[C@@H]1O[C@@H]1P(=O)(O)O` [fosfomycin, [(2R,3S)-3-methyloxiran-2-yl]phosphonic acid], for which the “stability in aqueous media” value in [3] is recorded as “unstable”. In addition, the “strains showing synergistic effect” value in [4] (early studies, various antibiotic combinations) was 70-100 % of tested strains. In addition, the synergy rates in [4] (subsequent more extensive studies) is given as 36-74%. For the same compound, the “toxicity to mammalian cells and organs” value in series [1] (intravenous doses of up to 0.5 g/kg/day in human patients) was “remarkably non-toxic”. In series [1] (patients), the eosinophilia is on record as 0.2%, the “transient rashes (allergy)” value is listed as 0.3 % of cases and the “transiently raised liver enzymes” value is recorded as 0.3 % of cases. The “concentration in polymorphonuclear leukocytes relative to extracellular fluid” value in series [5] is reported as “twice”. Moreover, the bactericidal activity entry in series [6] is reported as “active”. The bactericidal activity entry in series [7] is on record as “active”. In series [8], the bactericidal activity result was “less active”.
Consider `C[C@@H]1O[C@@H]1P(=O)(O)O.NC(CO)(CO)CO` [Fosfomycin trometamol], for which the “pH of 5% solution” value is reported as 3.5-5.5. Further, the gastric tolerability entry in [1] is on record as “well tolerated”. Further, in series [2], the solubility in water result is recorded as “highly soluble”.
Regarding “GM-CSF: monomeric glycoprotein of 127 amino-acid residues, colony-stimulating factor (SEQ ID NO: 2)”, the “healing of wounds and ulcers” value in series [9] is recorded as “beneficial”. Moreover, in series [10], the bacterial counts entry was “reduced bacterial counts” and the wound closure entry is reported as “accelerated wound closure”.
For the compound `C[C@@H]1O[C@@H]1P(=O)(O)O` [Fosfomycin calcium monohydrate], in [1], the gastric tolerability result is listed as “less irritating to the stomach”. Further, the “pH of 0.4% solution” value (0.4% solution) was 8.1-9.6. Further, in [2], the solubility in water entry is “sparingly soluble”.
